From ChEMBL document CHEMBL1201861, “Genomics of Drug Sensitity in Cancer screening data, Wellcome Trust Sanger Institute”
pIC50: −log10 of the molar value.

Key:
Test in all cases: cells
ES8 = format: functional, cell-based, Homo sapiens; settings: Homo sapiens, ES8;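 also: growth inhibition of human ES8 cells, read out with a cell viability assay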
Description: SANGER: Inhibition of human ES8 cell growth in a cell viability assay.

GAK = format: functional, cell-based, Homo sapiens; settings: Homo sapiens, GAK;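 also: cell growth inhibition read out by a cell viability assay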
Description: SANGER: Inhibition of human GAK cell growth in a cell viability assay.

GT3TKB = format: functional, cell-based, Homo sapiens; settings: Homo sapiens, GT3TKB;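 also: growth inhibition of the cell line, read out with a cell viability assay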
Description: SANGER: Inhibition of human GT3TKB cell growth in a cell viability assay.

U-87 MG = format: functional, cell-based, Homo sapiens, U-87MG ATCC; settings: Homo sapiens, U-87 MG;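 also: growth inhibition of the cells measured with a viability assay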
Description: SANGER: Inhibition of human U-87-MG cell growth in a cell viability assay.

SK-MEL-2 = format: functional, cell-based, Homo sapiens; settings: Homo sapiens, SK-MEL-2;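 also: growth inhibition of human SK-MEL-2 cells measured with a cell viability assay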
Description: SANGER: Inhibition of human SK-MEL-2 cell growth in a cell viability assay.

LC-2-ad = format: functional, cell-based, Homo sapiens; settings: Homo sapiens, LC-2-ad;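 also: growth inhibition of human LC-2-ad cells, read out with a cell viability assay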
Description: SANGER: Inhibition of human LC-2-ad cell growth in a cell viability assay.

SW684 = format: functional, cell-based, Homo sapiens; settings: Homo sapiens, SW684;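 also: growth inhibition of human SW684 cells, measured by a cell viability assay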
Description: SANGER: Inhibition of human SW684 cell growth in a cell viability assay.

A498 = format: functional, cell-based, Homo sapiens; settings: Homo sapiens, A498;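 also: growth inhibition of human A498 cells, read out with a cell viability assay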
Description: SANGER: Inhibition of human A498 cell growth in a cell viability assay.

RPMI-8226 = format: functional, cell-based, Homo sapiens; settings: Homo sapiens, RPMI-8226
Description: SANGER: Inhibition of human RPMI-8226 cell growth in a cell viability assay.

KE-37 = format: functional, cell-based, Homo sapiens; settings: Homo sapiens, KE-37;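 also: growth inhibition of KE-37 cells, read out with a cell viability assay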
Description: SANGER: Inhibition of human KE-37 cell growth in a cell viability assay.

ES1 = format: functional, cell-based, Homo sapiens; settings: Homo sapiens, ES1;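 also: growth inhibition of ES1 cells, read out with a cell viability assay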
Description: SANGER: Inhibition of human ES1 cell growth in a cell viability assay.

HCC 2998 = format: functional, cell-based, Homo sapiens; settings: Homo sapiens, HCC 2998;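 also: growth inhibition of human HCC2998 cells, measured with a cell viability read-out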
Description: SANGER: Inhibition of human HCC2998 cell growth in a cell viability assay.

SW982 = format: functional, cell-based, Homo sapiens; settings: Homo sapiens, SW982;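 also: growth inhibition of SW982 cells, read out with a cell viability assay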
Description: SANGER: Inhibition of human SW982 cell growth in a cell viability assay.

CGTH-W-1 = format: functional, cell-based, Homo sapiens; settings: Homo sapiens, CGTH-W-1;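 also: growth inhibition of human CGTH-W-1 cells measured by cell viability assay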
Description: SANGER: Inhibition of human CGTH-W-1 cell growth in a cell viability assay.

EM-2 = format: functional, cell-based, Homo sapiens; settings: Homo sapiens, EM-2;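 also: growth inhibition of EM-2 cells, read out with a cell viability assay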
Description: SANGER: Inhibition of human EM-2 cell growth in a cell viability assay.

BT-474 = format: functional, cell-based, Homo sapiens; settings: Homo sapiens, BT-474
Description: SANGER: Inhibition of human BT-474 cell growth in a cell viability assay.

MPP-89 = format: functional, cell-based, Homo sapiens; settings: Homo sapiens, MPP-89;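 also: growth inhibition of human MPP-89 cells, read out with a cell viability assay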
Description: SANGER: Inhibition of human MPP-89 cell growth in a cell viability assay.

BB30-HNC = format: functional, cell-based, Homo sapiens; settings: Homo sapiens, BB30-HNC;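 also: growth inhibition of the cultured cell line, read out by a cell viability assay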
Description: SANGER: Inhibition of human BB30-HNC cell growth in a cell viability assay.

KNS-81-FD = format: functional, cell-based, Homo sapiens; settings: Homo sapiens, KNS-81-FD;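 also: growth inhibition of KNS-81-FD cells, read out with a cell viability assay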
Description: SANGER: Inhibition of human KNS-81-FD cell growth in a cell viability assay.

NCI-H209 = format: functional, cell-based, Homo sapiens; settings: Homo sapiens, NCI-H209;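 also: growth inhibition of human NCI-H209 cells, measured by a cell viability assay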
Description: SANGER: Inhibition of human NCI-H209 cell growth in a cell viability assay.

KINGS-1 = format: functional, cell-based, Homo sapiens; settings: Homo sapiens, KINGS-1;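 also: cell viability assay measuring suppression of KINGS-1 cell growth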
Description: SANGER: Inhibition of human KINGS-1 cell growth in a cell viability assay.

NB10 = format: functional, cell-based, Homo sapiens; settings: Homo sapiens, NB10;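 also: growth inhibition of NB10 cells, read out by a cell viability assay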
Description: SANGER: Inhibition of human NB10 cell growth in a cell viability assay.

NCI-H226 = format: functional, cell-based, Homo sapiens; settings: Homo sapiens, NCI-H226;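 also: cell viability read-out used to gauge growth inhibition of the cells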
Description: SANGER: Inhibition of human NCI-H226 cell growth in a cell viability assay.

HEL = format: functional, cell-based, Homo sapiens; settings: Homo sapiens, HEL;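 also: growth inhibition of HEL cells, read out with a cell viability assay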
Description: SANGER: Inhibition of human HEL cell growth in a cell viability assay.

SHP77 = format: functional, cell-based, Homo sapiens, SHP-77; settings: Homo sapiens, SHP77;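 also: growth inhibition of human SHP-77 cells measured by a cell viability assay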
Description: SANGER: Inhibition of human SHP-77 cell growth in a cell viability assay.

LS-411N = format: functional, cell-based, Homo sapiens; settings: Homo sapiens, LS-411N
KM-H2 = format: functional, cell-based, Homo sapiens; settings: Homo sapiens, KM-H2;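 also: growth inhibition of KM-H2 cells, read out by a cell viability assay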
Description: SANGER: Inhibition of human KM-H2 cell growth in a cell viability assay.

D-502MG = format: functional, cell-based, Homo sapiens; settings: Homo sapiens, D-502MG
Description: SANGER: Inhibition of human D-502MG cell growth in a cell viability assay.

TK-10 = format: functional, cell-based, Homo sapiens; settings: Homo sapiens, TK-10;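 also: growth inhibition of TK-10 cells, read out in a cell viability assay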
Description: SANGER: Inhibition of human TK10 cell growth in a cell viability assay.

SF-268 = format: functional, cell-based, Homo sapiens; settings: Homo sapiens, SF-268;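 also: growth inhibition of SF-268 cells determined with a cell viability assay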
Description: SANGER: Inhibition of human SF268 cell growth in a cell viability assay.

EW-3 = format: functional, cell-based, Homo sapiens; settings: Homo sapiens, EW-3;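 also: cell viability assay read-out, IC50 reflects inhibition of growth of the EW-3 cells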
Description: SANGER: Inhibition of human EW-3 cell growth in a cell viability assay.

ACN = format: functional, cell-based, Homo sapiens; settings: Homo sapiens, ACN;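 also: growth inhibition of the human ACN cell line, read out via cell viability testing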
Description: SANGER: Inhibition of human ACN cell growth in a cell viability assay.

SH-4 = format: functional, cell-based, Homo sapiens; settings: Homo sapiens, SH-4;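 also: growth inhibition of SH-4 cells, read out with a cell viability assay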
Description: SANGER: Inhibition of human SH-4 cell growth in a cell viability assay.

COLO-668 = format: functional, cell-based, Homo sapiens; settings: Homo sapiens, COLO-668
Description: SANGER: Inhibition of human COLO-668 cell growth in a cell viability assay.

no-11 = format: functional, cell-based, Homo sapiens; settings: Homo sapiens;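 also: growth inhibition of human NO-11 cells, read out with a cell viability assay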
Description: SANGER: Inhibition of human no-11 cell growth in a cell viability assay.

NEC8 = format: functional, cell-based, Homo sapiens; settings: Homo sapiens, NEC8;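 also: growth inhibition of human NEC8 cells, read out by a cell viability assay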
Description: SANGER: Inhibition of human NEC8 cell growth in a cell viability assay.

IST-MEL1 = format: functional, cell-based, Homo sapiens; settings: Homo sapiens, IST-MEL1;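 also: growth inhibition of the cell line, read out with a cell viability assay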
Description: SANGER: Inhibition of human IST-MEL1 cell growth in a cell viability assay.

MZ2-MEL = format: functional, cell-based, Homo sapiens; settings: Homo sapiens, MZ2-MEL;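 also: growth inhibition of MZ2-MEL cells read out with a cell viability assay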
Description: SANGER: Inhibition of human MZ2-MEL cell growth in a cell viability assay.

SW 954 = format: functional, cell-based, Homo sapiens; settings: Homo sapiens, SW 954;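 also: growth inhibition of SW954 human cancer cells, read out as cell viability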
Description: SANGER: Inhibition of human SW954 cell growth in a cell viability assay.

LB996-RCC = format: functional, cell-based, Homo sapiens; settings: Homo sapiens, LB996-RCC
Description: SANGER: Inhibition of human LB996-RCC cell growth in a cell viability assay.

EW-16 = format: functional, cell-based, Homo sapiens; settings: Homo sapiens, EW-16;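 also: growth inhibition of human EW-16 cells, read out as cell viability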
Description: SANGER: Inhibition of human EW-16 cell growth in a cell viability assay.

ALL-PO = format: functional, cell-based, Homo sapiens; settings: Homo sapiens, ALL-PO;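 also: growth inhibition of ALL-PO cells, read out by a cell viability assay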
Description: SANGER: Inhibition of human ALL-PO cell growth in a cell viability assay.

MZ7-mel = format: functional, cell-based, Homo sapiens; settings: Homo sapiens, MZ7-mel;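 also: growth inhibition of human MZ7-mel cells, measured by a cell viability assay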
Description: SANGER: Inhibition of human MZ7-mel cell growth in a cell viability assay.

OCUB-M = format: functional, cell-based, Homo sapiens; settings: Homo sapiens, OCUB-M;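 also: growth inhibition of the cancer cell line, read out through a cell viability assay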
Description: SANGER: Inhibition of human OCUB-M cell growth in a cell viability assay.

A704 = format: functional, cell-based, Homo sapiens; settings: Homo sapiens, A704;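 also: growth inhibition of human A704 cells, read out with a cell viability assay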
Description: SANGER: Inhibition of human A704 cell growth in a cell viability assay.

PSN1 = format: functional, cell-based, Homo sapiens; settings: Homo sapiens, PSN1;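 also: suppression of growth of human PSN1 cells, read out by a cell viability assay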
Description: SANGER: Inhibition of human PSN1 cell growth in a cell viability assay.

With `CCN(CC)CCCCNc1ncc2cc(-c3cc(OC)cc(OC)c3)c(NC(=O)NC(C)(C)C)nc2n1` [PD-173074] the pIC50 (ES8) was less than 5.70, the pIC50 (GAK) was less than 5.70 and the pIC50 (GT3TKB) was less than 5.70. For the same compound, the pIC50 (U-87 MG) was less than 5.70, the pIC50 (SK-MEL-2) was less than 5.70 and the pIC50 (LC-2-ad) was less than 5.70. For the same compound, the pIC50 (SW684) was less than 5.70, the pIC50 (A498) was less than 5.70 and the pIC50 (RPMI-8226) was less than 5.70. The pIC50 (KE-37) was less than 5.70, the pIC50 (ES1) was less than 5.70 and the pIC50 (HCC 2998) was less than 5.70. For the same compound, the pIC50 (SW982) was less than 5.70, the pIC50 (CGTH-W-1) was less than 5.70 and the pIC50 (EM-2) was less than 5.70. For the same compound, the pIC50 (BT-474) was less than 5.70, the pIC50 (MPP-89) was less than 5.70 and the pIC50 (BB30-HNC) was less than 5.70. It also gave a pIC50 (KNS-81-FD) of less than 5.70, a pIC50 (NCI-H209) of less than 5.70 and a pIC50 (KINGS-1) of less than 5.70. It also gave a pIC50 (NB10) of less than 5.70, a pIC50 (NCI-H226) of less than 5.70 and a pIC50 (HEL) of less than 5.70. The pIC50 (SHP77) was less than 5.70, the pIC50 (LS-411N) was less than 5.70 and the pIC50 (KM-H2) was less than 5.70. It also gave a pIC50 (D-502MG) of less than 5.70, a pIC50 (TK-10) of less than 5.70 and a pIC50 (SF-268) of less than 5.70. For the same compound, the pIC50 (EW-3) was less than 5.70, the pIC50 (ACN) was less than 5.70 and the pIC50 (SH-4) was less than 5.70. It also gave a pIC50 (COLO-668) of less than 5.70, a pIC50 (no-11) of less than 5.70 and a pIC50 (NEC8) of 6.25. It also gave a pIC50 (IST-MEL1) of less than 5.70, a pIC50 (MZ2-MEL) of less than 5.70 and a pIC50 (SW 954) of less than 5.70. It also gave a pIC50 (LB996-RCC) of less than 5.70, a pIC50 (EW-16) of less than 5.70 and a pIC50 (ALL-PO) of less than 5.70. It also gave a pIC50 (MZ7-mel) of less than 5.70, a pIC50 (OCUB-M) of less than 5.70 and a pIC50 (A704) of less than 5.70. For the same compound, the pIC50 (PSN1) was less than 5.70.
`COc1cc2c(Nc3ccc(NC(=O)c4ccccc4)cc3)ncnc2cc1OCCCN1CCOCC1` gave a pIC50 (ES8) of 6.30, a pIC50 (GAK) of less than 5.40 and a pIC50 (GT3TKB) of less than 5.40. It also gave a pIC50 (U-87 MG) of less than 5.40, a pIC50 (SK-MEL-2) of less than 5.40 and a pIC50 (LC-2-ad) of less than 5.40. The pIC50 (SW684) was less than 5.40, the pIC50 (A498) was 5.63 and the pIC50 (RPMI-8226) was less than 5.40. For the same compound, the pIC50 (KE-37) was 5.92, the pIC50 (ES1) was 5.75 and the pIC50 (HCC 2998) was less than 5.40. The pIC50 (SW982) was less than 5.40, the pIC50 (CGTH-W-1) was 5.58 and the pIC50 (EM-2) was 5.85. For the same compound, the pIC50 (BT-474) was less than 5.40, the pIC50 (MPP-89) was less than 5.40 and the pIC50 (BB30-HNC) was 5.59. The pIC50 (KNS-81-FD) was less than 5.40, the pIC50 (NCI-H209) was 5.93 and the pIC50 (KINGS-1) was less than 5.40. It also gave a pIC50 (NB10) of less than 5.40, a pIC50 (NCI-H226) of less than 5.40 and a pIC50 (HEL) of less than 5.40. The pIC50 (SHP77) was less than 5.40, the pIC50 (LS-411N) was less than 5.40 and the pIC50 (KM-H2) was less than 5.40. It also gave a pIC50 (D-502MG) of 5.40, a pIC50 (TK-10) of less than 5.40 and a pIC50 (SF-268) of less than 5.40. For the same compound, the pIC50 (EW-3) was less than 5.40, the pIC50 (ACN) was less than 5.40 and the pIC50 (SH-4) was less than 5.40. The pIC50 (COLO-668) was less than 5.40, the pIC50 (no-11) was less than 5.40 and the pIC50 (NEC8) was less than 5.40. The pIC50 (IST-MEL1) was less than 5.40, the pIC50 (MZ2-MEL) was less than 5.40 and the pIC50 (SW 954) was 6.08. It also gave a pIC50 (LB996-RCC) of less than 5.40, a pIC50 (EW-16) of 5.49 and a pIC50 (ALL-PO) of 5.57. The pIC50 (MZ7-mel) was less than 5.40, the pIC50 (OCUB-M) was 5.65 and the pIC50 (A704) was less than 5.40. For the same compound, the pIC50 (PSN1) was less than 5.40.
`CC1(C)CNc2cc(NC(=O)c3cccnc3NCc3ccncc3)ccc21` [MOTESANIB] showed a pIC50 (ES8) of less than 5.70, a pIC50 (GAK) of less than 5.70 and a pIC50 (GT3TKB) of less than 5.70. It also gave a pIC50 (U-87 MG) of less than 5.70, a pIC50 (SK-MEL-2) of less than 5.70 and a pIC50 (LC-2-ad) of less than 5.70. It also gave a pIC50 (SW684) of less than 5.70, a pIC50 (A498) of less than 5.70 and a pIC50 (RPMI-8226) of less than 5.70. The pIC50 (KE-37) was less than 5.70, the pIC50 (ES1) was less than 5.70 and the pIC50 (HCC 2998) was less than 5.70. The pIC50 (SW982) was less than 5.70, the pIC50 (CGTH-W-1) was 6.17 and the pIC50 (EM-2) was less than 5.70. The pIC50 (BT-474) was less than 5.70, the pIC50 (MPP-89) was less than 5.70 and the pIC50 (BB30-HNC) was less than 5.70. For the same compound, the pIC50 (KNS-81-FD) was less than 5.70, the pIC50 (NCI-H209) was less than 5.70 and the pIC50 (KINGS-1) was less than 5.70. It also gave a pIC50 (NB10) of less than 5.70, a pIC50 (NCI-H226) of less than 5.70 and a pIC50 (HEL) of less than 5.70. For the same compound, the pIC50 (SHP77) was less than 5.70, the pIC50 (LS-411N) was less than 5.70 and the pIC50 (KM-H2) was less than 5.70. The pIC50 (D-502MG) was less than 5.70, the pIC50 (TK-10) was less than 5.70 and the pIC50 (SF-268) was less than 5.70. It also gave a pIC50 (EW-3) of less than 5.70, a pIC50 (ACN) of less than 5.70 and a pIC50 (SH-4) of less than 5.70. The pIC50 (COLO-668) was less than 5.70, the pIC50 (no-11) was less than 5.70 and the pIC50 (NEC8) was less than 5.70. It also gave a pIC50 (IST-MEL1) of less than 5.70, a pIC50 (MZ2-MEL) of less than 5.70 and a pIC50 (SW 954) of less than 5.70. The pIC50 (LB996-RCC) was less than 5.70, the pIC50 (EW-16) was less than 5.70 and the pIC50 (ALL-PO) was less than 5.70. The pIC50 (MZ7-mel) was less than 5.70, the pIC50 (OCUB-M) was less than 5.70 and the pIC50 (A704) was less than 5.70. It also gave a pIC50 (PSN1) of less than 5.70.
